In one assay the test system is Bacillus subtilis 168. Nature of the assay: Disk diffusion antimicrobial activity assay, Bacillus subtilis 168. The assay is classed as cell-based. The note with it: paper disk, 25 μL of 2 μg/μL in chloroform (lugdunomycin: 10 μL of 1 μg/μL in methanol), 37° C., 18 h, FIG. 6 A. An excerpt: (§1) Streptomyces sp. QL37 was isolated from soil in the Qinling mountains (P. R. China) soil as described previously (Zhu et al, 2014b). The previously undescribed strain was deposited to the collection of the Centraal Bureau voor Schimmelcultures (CBS) in Utrecht, The Netherlands. Streptomyces sp. QL37 was cultivated on Minimal Medium agar plates (MM) (Kieser et al., 2000) with 0.5% glycerol and 1% mannitol (w/v) as the carbon sources, on R5 agar supplemented with 0.8% peptone and 1% mannitol (w/v), or to prepare spore suspensions on SFM agar plates (Soy flour man nitol; (Kieser et al., 2000)). Square agar plates (12 cm×12 cm) were inoculated with 1×10^7 spores from a fresh spore suspension. As indicator strains for the antibacterial assays we used B. subtilis 168 and E. coli JM109 (Sambrook et al., 1989).
(§2) Antimicrobial activity was determined using a disk diffusion assay. For this, compounds were dissolved in chloroform to a concentration of (2 μg/μL) and of this solution, 25 μL was applied on a paper disk (GE Healthcare Bio-Sciences, Pittsburgh), except for lugdunomycin, for which 10 μL of a 1 μg/μL solution in methanol was used. […] After incubation at 37° C. for 18 h, growth inhibition zones (in mm) were recorded as antimicrobial activity.
On the technique in general: In agar diffusion tests the substance spreads into inoculated agar from a disc or well.

In the next assay the test system is Escherichia coli JM109. Kind of assay: Disk diffusion antimicrobial activity assay, Escherichia coli JM109. The assay is classed as cell-based. The note with it: paper disk, 25 μL of 2 μg/μL in chloroform (lugdunomycin: 10 μL of 1 μg/μL in methanol); 37° C., 18 h; FIG. 6 B, D.
Excerpt: as §1, §2

The values below come from patent US10696685B2, “Polyketides, methods of use and preparation” (Universiteit Leiden, priority 2015, dated 2020).

Each structure is given as a SMILES string. Entries after “also recorded” stand apart in the source; their conditions may differ.

As to `COc1cccc2c1[C@@H](O)[C@]13C[C@@H](O)C[C@]1(C(=O)NC3=O)[C@]21Oc2cc(C)cc3ccc(O)c1c23` [Lugdunomycin (1), lugdunomycin], the “antimicrobial activity (growth inhibition) against Gram-positive Bacillus subtilis” value in the assay with Bacillus subtilis 168 is on record as “showed inhibition efficacy; also recorded: showed antimicrobial activity”. Moreover, in the assay on Escherichia coli JM109, the “antimicrobial activity (growth inhibition) against Gram-negative Escherichia coli JM109” value is listed as “not against”.
